Reference: publication PMC10605010, “Immunotechniques for the Group Determination of Macrolide Antibiotics Traces in the Environment Using a Volume-Mediated Sensitivity Enhancement Strategy” (Biosensors, 2023)
In brackets after ≈: the same amount, converted by molar mass. Several values for one entry are separate records, joined by “and”; a condition that tells them apart may be missing. Identical values can stand only once. Like-named read-outs stand apart in the source and are kept apart here.

Assays:
[1] = system: anti-BSA-cmoCLA(ae) antibodies; experiment: Indirect competitive ELISA (icELISA), variants by coating antigen; assay type: binding, rabbit; settings: for CR: CLA = 100
Protocol: In present work, we investigated and compared several new-designed and previously established coating antigens, which were adsorbed on the 96-well Costar plates from 0.1 to 3.0 µg/mL solutions in CBB (pH 9.6) overnight at 4 °C. […] Solutions of these analytes (1 pg/mL–1 μg/mL) were added to wells of the plate along with anti-cmoCLA antibody in PBS-T with 1%BSA and incubated for 1 h at 25 °C in plate-shaker ST-3 L (ELMI Ltd. laboratory equipment, Riga, Latvia). GAR-HRP was used to detect antigen-antibody formed complexes for 1 h at 37 °C. The activity of the bound enzyme was detected using TMB-substrate mixture, and the intensity of colored product was read at 450 nm using a LisaScan spectrophotometer (Erba Mannheim, Czech Republic). […] The relative antibody-binding absorbance (B/B0) was determined for each concentration of analyte and used to construct a calibration curve as B/B0 versus the concentration. Structurally related macrolides CLA, ESE, ROX, AZI, DIR, TUL, and OLE were analyzed for their cross-reactions. […] Assay sensitivity, limit of detection (LOD), and working range of the assay were set as values of IC50, IC10, and IC20-IC80 range, respectively.

[2] = system: anti-BSA-cmoCLA(ae) antibodies; set-up: method as in PMID 25256165; settings: coating antigen GEL-cmoCLA(ae), cited from earlier work; for IC50: homologous; for CR: CLA = 100, recalculated from ref 18
[3] = system: antibody to immunogen BSA-cmoERY(ma); set-up: method as in PMID 25308648; settings: milk; ERY = 100; cited from earlier work
[4] = system: antibody to immunogen BSA-cmoCLA(ae); set-up: method as in doi:10.1039/C9QM00429G; settings: milk, cited from earlier work; for CR: CLA = 100
[5] = system: antibody to immunogen BSA-cmoCLA(ae); set-up: method as in PMID 32693204; settings: breast milk, cited from earlier work; for CR: CLA = 100
[6] = system: antibody to immunogen BSA-cmoERY(ma); settings: milk; ERY = 100; cited from earlier work
[7] = coating antigen OVA-aecAZI(dma)

CC[C@H]1OC(=O)[C@H](C)[C@@H](O[C@H]2C[C@@](C)(OC)[C@@H](O)[C@H](C)O2)[C@H](C)[C@@H](O[C@@H]2O[C@H](C)C[C@H](N(C)C)[C@H]2O)[C@](C)(O)C[C@@H](C)CN(C)[C@H](C)[C@@H](O)[C@]1(C)O [AZI, azithromycin]
IC50 ([1]; coating antigen OVA(pi)-aecAZI): 0.107 ng/mL (≈ 0.143 nM)
CR ([1]; coating antigen OVA(pi)-aecAZI): 41% and 41.1%
IC50 [1, 7]: 1.220 ng/mL (≈ 1.63 nM)
CR [1, 7]: 12.9%
IC50 ([1]; coating antigen OVA-aecAZI(ga)): 0.315 ng/mL (≈ 0.421 nM)
CR ([1]; coating antigen OVA-aecAZI(ga)): 13.7%
IC50 ([1]; coating antigen OVA-cmoERY(ae)): 1.990 ng/mL (≈ 2.66 nM)
CR ([1]; coating antigen OVA-cmoERY(ae)): 9% and 8.6%
CR (detectability) ([1]; span over all ELISAs utilizing coated AZI conjugates): 13–41%
IC50 [2]: 1.63 ng/mL (≈ 2.18 nM)
CR [2]: 9% and 8.8%
CR [3]: 0.9%
CR [4]: 16.2%
CR [5]: 5.7%

CC[C@H]1OC(=O)[C@H](C)[C@@H](O[C@H]2C[C@@](C)(OC)[C@@H](O)[C@H](C)O2)[C@H](C)[C@@H](O[C@@H]2O[C@H](C)C[C@H](N(C)C)[C@H]2O)[C@](C)(OC)C[C@@H](C)C(=O)[C@H](C)[C@@H](O)[C@]1(C)O [CLA, clarithromycin]
IC50 ([1]; coating antigen OVA(pi)-aecAZI): 0.044 ng/mL (≈ 0.0588 nM)
CR ([1]; coating antigen OVA(pi)-aecAZI): 100%
IC50 [1, 7]: 0.157 ng/mL (≈ 0.21 nM)
CR [1, 7]: 100%
IC50 ([1]; coating antigen OVA-aecAZI(ga)): 0.043 ng/mL (≈ 0.0575 nM)
CR ([1]; coating antigen OVA-aecAZI(ga)): 100%
IC50 ([1]; coating antigen OVA-cmoERY(ae)): 0.172 ng/mL (≈ 0.23 nM)
CR ([1]; coating antigen OVA-cmoERY(ae)): 100%
IC50 [2]: 0.16 ng/mL (≈ 0.214 nM)
CR [2]: 100%
CR [3]: 26.7%
CR [4]: 100%
IC50 [4]: 0.16 ng/mL (≈ 0.214 nM)
LOD [4]: 0.095 ng/mL
CR [5]: 100%
IC50 [5]: 0.45 ng/mL (≈ 0.602 nM)
LOD [5]: 0.12 ng/mL
CR [6]: 26.7%

CC[C@H]1OC(=O)[C@H](C)[C@@H](O[C@H]2C[C@@](C)(OC)[C@@H](O)[C@H](C)O2)[C@H](C)[C@@H](O[C@@H]2O[C@H](C)C[C@H](N(C)C)[C@H]2O)[C@](C)(O)C[C@@H](C)[C@@H]2N[C@@H](COCCOC)O[C@H]([C@H]2C)[C@]1(C)O [DIR, dirithromycin]
IC50 ([1]; coating antigen OVA(pi)-aecAZI): 0.096 ng/mL (≈ 0.115 nM)
CR ([1]; coating antigen OVA(pi)-aecAZI): 45.8%
IC50 [1, 7]: 0.544 ng/mL (≈ 0.651 nM)
CR [1, 7]: 28.9%
IC50 ([1]; coating antigen OVA-aecAZI(ga)): 0.136 ng/mL (≈ 0.163 nM)
CR ([1]; coating antigen OVA-aecAZI(ga)): 31.6%
IC50 ([1]; coating antigen OVA-cmoERY(ae)): 0.554 ng/mL (≈ 0.663 nM)
CR ([1]; coating antigen OVA-cmoERY(ae)): 31%
CR [3]: 157%
CR [5]: 5.4%
CR [6]: 157%

CCOC(=O)CCC(=O)O[C@H]1[C@H](O[C@@H]2[C@@H](C)[C@H](O[C@H]3C[C@@](C)(OC)[C@@H](O)[C@H](C)O3)[C@@H](C)C(=O)O[C@H](CC)[C@@](C)(O)[C@H](O)[C@@H](C)C(=O)[C@H](C)C[C@@]2(C)O)O[C@H](C)C[C@@H]1N(C)C [ESE, erythromycin ethyl succinate]
IC50 ([1]; coating antigen OVA(pi)-aecAZI): 0.074 ng/mL
CR ([1]; coating antigen OVA(pi)-aecAZI): 59.5%
IC50 [1, 7]: 0.352 ng/mL
CR [1, 7]: 44.6%
IC50 ([1]; coating antigen OVA-aecAZI(ga)): 0.094 ng/mL
CR ([1]; coating antigen OVA-aecAZI(ga)): 45.7%
IC50 ([1]; coating antigen OVA-cmoERY(ae)): 0.466 ng/mL
CR ([1]; coating antigen OVA-cmoERY(ae)): 37% and 36.9%
CR [6]: 43.7%

CO[C@H]1C[C@H](O[C@H]2[C@H](C)[C@@H](O[C@@H]3O[C@H](C)C[C@H](N(C)C)[C@H]3O)[C@@H](C)C[C@@]3(CO3)C(=O)[C@H](C)[C@@H](O)[C@@H](C)[C@@H](C)OC(=O)[C@@H]2C)O[C@@H](C)[C@@H]1O [OLE, oleandomycin]
IC50 ([1]; coating antigen OVA(pi)-aecAZI): 45.64 ng/mL (≈ 66.3 nM)
CR ([1]; coating antigen OVA(pi)-aecAZI): 0.1%
IC50 [1, 7]: 287.2 ng/mL (≈ 418 nM)
CR [1, 7]: 0.05%
IC50 ([1]; coating antigen OVA-aecAZI(ga)): 40.10 ng/mL (≈ 58.3 nM)
CR ([1]; coating antigen OVA-aecAZI(ga)): 0.11%
IC50 ([1]; coating antigen OVA-cmoERY(ae)): 75.75 ng/mL (≈ 110 nM)
CR ([1]; coating antigen OVA-cmoERY(ae)): 0.2%

CC[C@H]1OC(=O)[C@H](C)[C@@H](O[C@H]2C[C@@](C)(OC)[C@@H](O)[C@H](C)O2)[C@H](C)[C@@H](O[C@@H]2O[C@H](C)C[C@H](N(C)C)[C@H]2O)[C@](C)(O)C[C@@H](C)/C(=N\OCOCCOC)[C@H](C)[C@@H](O)[C@]1(C)O [ROX, roxithromycin]
IC50 ([1]; coating antigen OVA(pi)-aecAZI): 0.051 ng/mL (≈ 0.0609 nM)
CR ([1]; coating antigen OVA(pi)-aecAZI): 86.3%
IC50 [1, 7]: 0.157 ng/mL (≈ 0.188 nM)
CR [1, 7]: 100%
IC50 ([1]; coating antigen OVA-aecAZI(ga)): 0.040 ng/mL (≈ 0.0478 nM)
CR ([1]; coating antigen OVA-aecAZI(ga)): 107.5%
IC50 ([1]; coating antigen OVA-cmoERY(ae)): 0.125 ng/mL (≈ 0.149 nM)
CR ([1]; coating antigen OVA-cmoERY(ae)): 137.6%
IC50 [2]: 0.14 ng/mL (≈ 0.167 nM)
CR [2]: 125%
CR [3]: 14.8%
CR [4]: 21.1%
CR [5]: 97.8%
CR [6]: 92%

CCCNC[C@]1(O)[C@H](C)O[C@@H](O[C@H]2[C@H](C)[C@@H](O[C@@H]3O[C@H](C)C[C@H](N(C)C)[C@H]3O)[C@](C)(O)C[C@@H](C)CN[C@H](C)[C@@H](O)[C@](C)(O)[C@@H](CC)OC(=O)[C@@H]2C)C[C@@]1(C)OC [TUL, tulathromycin]
IC50 ([1]; coating antigen OVA(pi)-aecAZI): 5.403 ng/mL (≈ 6.7 nM)
CR ([1]; coating antigen OVA(pi)-aecAZI): 0.81%
IC50 [1, 7]: 379.5 ng/mL (≈ 471 nM)
CR [1, 7]: 0.04%
IC50 ([1]; coating antigen OVA-aecAZI(ga)): 134.8 ng/mL (≈ 167 nM)
CR ([1]; coating antigen OVA-aecAZI(ga)): 0.03%
IC50 ([1]; coating antigen OVA-cmoERY(ae)): 629.9 ng/mL (≈ 781 nM)
